Experimental data from ChEMBL document CHEMBL1126539, “Oxazole, thiazole, and imidazole derivatives of 2,6-di-tert-butylphenol as dual 5-lipoxygenase and cyclooxygenase inhibitors” (Bioorg Med Chem Lett, 1993).

Experiments:
RBL-1 [1] = assay: Compound was tested for its inhibitory activity against LTB4 (5-LO) formation in RBL-1 cells stimulated with the calcium ionophore A-23187; type: functional, cell-based; settings: Rattus norvegicus
RBL-1 [2] = assay: Compound was tested for its inhibitory activity against PGF-2 alpha (CO) formation in RBL-1 cells stimulated with the calcium ionophore A-23187; type: functional, cell-based; settings: Rattus norvegicus
Rattus norvegicus = assay: Compound was tested for inhibition of edema in the carrageenan foot-pad edema test; inactive; type: functional

Molecule `CN1C(NC(=N)N)=NC(=O)/C1=C/c1cc(C(C)(C)C)c(O)c(C(C)(C)C)c1` has an IC50 (RBL-1 [1]) of 1.3 µM, an IC50 (RBL-1 [2]) of 2.1 µM and an Inhibition (Rattus norvegicus) of less than 25%.

`CN1C(=O)NC(=O)/C1=C/c1cc(C(C)(C)C)c(O)c(C(C)(C)C)c1` was tested, and the IC50 (RBL-1 [1]) was 0.78 µM, the IC50 (RBL-1 [2]) was 4.6 µM and the Inhibition (Rattus norvegicus) was less than 25%.

In the case of `CC(C)(C)c1cc(/C=C2\SC(=O)NC2=O)cc(C(C)(C)C)c1O`, the IC50 (RBL-1 [2]) is reported as 0.35 µM.

`CC(C)(C)c1cc(/C=C2\SC(=S)NC2=O)cc(C(C)(C)C)c1O` showed an IC50 (RBL-1 [1]) of 0.38 µM and an IC50 (RBL-1 [2]) of 0.012 µM.

`CC(C)(C)c1cc(/C=C2\OC(=O)NC2=O)cc(C(C)(C)C)c1O` showed an IC50 (RBL-1 [1]) of 2.8 µM and an IC50 (RBL-1 [2]) of 0.65 µM.

`CC(C)(C)c1cc(/C=C2\OC(=S)NC2=O)cc(C(C)(C)C)c1O` showed an IC50 (RBL-1 [1]) of 0.84 µM and an IC50 (RBL-1 [2]) of 1.7 µM.

`CC(C)(C)c1cc(/C=C2\SC(N=C(N)N)=NC2=O)cc(C(C)(C)C)c1O` gave an IC50 (RBL-1 [1]) of 0.91 µM and an IC50 (RBL-1 [2]) of 0.083 µM.

`CC(C)(C)c1cc(/C=C2\OC(N=C(N)N)=NC2=O)cc(C(C)(C)C)c1O` gave an IC50 (RBL-1 [1]) of 1.2 µM and an IC50 (RBL-1 [2]) of 0.34 µM.

For `CN1C(=S)NC(=O)/C1=C/c1cc(C(C)(C)C)c(O)c(C(C)(C)C)c1`, the IC50 (RBL-1 [1]) was 0.17 µM, the IC50 (RBL-1 [2]) was 0.79 µM and the Inhibition (Rattus norvegicus) was less than 25%.

`Cc1ccc(Cl)c(Nc2ccccc2C(=O)O)c1Cl` [MECLOFENAMATE SODIUM] was tested, and the IC50 (RBL-1 [1]) was 24 µM.

`CC(C)(C)c1cc(/C=C2\SC(=N)NC2=O)cc(C(C)(C)C)c1O` [DARBUFELONE] showed an IC50 (RBL-1 [1]) of 1.2 µM and an IC50 (RBL-1 [2]) of 0.11 µM.
